This is an account of results in article PMC2883770 (Journal of natural products, 2009).

Assay [1] relates to HT-29 human colon cancer cells. The assay can be described thus: Cytotoxicity assay against HT-29 cells. It is filed as cell-based.
Assay [2] has as its system MCF-7 human breast cancer cells. The assay can be described thus: Cytotoxicity assay against MCF-7 cells. It counts as cell-based.
Another assay concerns HT-29 cells. Nature of the assay: Mitochondrial transmembrane potential. It counts as cell-based, human. As to conditions: 2 h treatment, JC-1 dye.

Where only a bound is given, the exact number is not on record here.

For `CC(=O)O[C@@H]([C@H]1C[C@@H]1C(=O)C(C)OC(=O)/C=C/c1ccc(O)cc1)[C@H]1CC=CC(=O)O1` (stereo partly drawn) [Compound 1, Brevipolide A], the “ED50 against HT-29 cells” value in assay [1] is 5.8 µM. In addition, the “ED50 against MCF-7 cells” value in assay [2] is more than 10 µM.
`CC(OC(=O)/C=C\c1ccc(O)cc1)C(=O)[C@H]1C[C@@H]1[C@H](O)[C@H]1CC=CC(=O)O1` (stereo partly drawn) [Compound 6, Brevipolide F]: the “ED50 against HT-29 cells” value in assay [1] amounted to 7.5 µM. The “ED50 against MCF-7 cells” value in assay [2] was found to be 6.7 µM.
With `CC(=O)O[C@@H]([C@H]1C[C@@H]1C(=O)C(C)OC(=O)/C=C\c1ccc(O)cc1)[C@H]1CC=CC(=O)O1` (stereo partly drawn) [Compound 2, Brevipolide B], the “ED50 against HT-29 cells” value in assay [1] turned out to be 6.1 µM. In addition, the “ED50 against MCF-7 cells” value in assay [2] was 6.1 µM.
In the case of `COc1ccc(-c2oc3cc(OC)c(O)c(O)c3c(=O)c2OC)cc1O` [Compound 8, 5,6,3′-trihydroxy-3,7,4′-trimethoxyflavone], in assay [1], the “ED50 against HT-29 cells” value was 3.6 µM. The “ED50 in mitochondrial transmembrane potential assay” value in the assay on HT-29 cells stood at 0.31 µM.
As for `CC(OC(=O)/C=C/c1ccc(O)c(O)c1)C(=O)[C@H]1C[C@@H]1[C@H](O)[C@H]1CC=CC(=O)O1` (stereo partly drawn) [Compound 3, Brevipolide C], the “ED50 in mitochondrial transmembrane potential assay” value in the assay with HT-29 cells was determined as 0.0085 µM.
